Measured values taken from ChEMBL document CHEMBL4613312, “Predictive Gene Signature for Pyrazolopyrimidine Derivative c-Src Inhibitor 10a Sensitivity in Melanoma Cells” (ACS Med Chem Lett, 2020).
The source made the active and inactive calls.

Columns and labels:
Homo sapiens [1] = organism: Homo sapiens; test: Upregulation of TMED7 mRNA level in human M221 cells by SYBR-green dye based qRT-PCR analysis; format: functional, cell-based
[2] = Cytotoxicity against human M307 cells assessed as reduction in cell viability measured after 72 hrs by Celltiter-Glo luminescent assay; format: functional, cell-based
Homo sapiens [3] = organism: Homo sapiens; test: Upregulation of PLOD2 mRNA level in human M2025 cells by SYBR-green dye based qRT-PCR analysis; format: functional, cell-based
[4] = Cytotoxicity against human M193 cells assessed as reduction in cell viability at 20 uM measured after 72 hrs by Celltiter-Glo luminescent assay relative to control; format: functional
[5] = Cytotoxicity against human M187 cells assessed as reduction in cell viability measured after 72 hrs by Celltiter-Glo luminescent assay; format: functional, cell-based
M34 [6] = test: Downregulation of XRCC5 mRNA level in human M34 cells by SYBR-green dye based qRT-PCR analysis; format: functional, cell-based
[7] = Cytotoxicity against human M2025 cells assessed as reduction in cell viability measured after 72 hrs by Celltiter-Glo luminescent assay; format: functional, cell-based
Homo sapiens [8] = organism: Homo sapiens; test: Downregulation of NSUN5 mRNA level in human M433 cells by SYBR-green dye based qRT-PCR analysis; format: functional, cell-based
[9] = Chemosensitization activity in human M221 cells assessed as reduction in cell viability at 20 uM measured after 72 hrs in presence of 0.8 mM sodium valproate by Celltiter-Glo luminescent assay relative to control; format: functional
[10] = Cytotoxicity against human M193 cells assessed as reduction in cell viability measured after 72 hrs by Celltiter-Glo luminescent assay; format: functional, cell-based
Homo sapiens [11] = organism: Homo sapiens; test: Downregulation of XRCC5 mRNA level in human M221 cells by SYBR-green dye based qRT-PCR analysis; format: functional, cell-based
[12] = Cytotoxicity against human M77 cells assessed as reduction in cell viability measured after 72 hrs by Celltiter-Glo luminescent assay; format: functional, cell-based
[13] = Chemosensitization activity in human M193 cells assessed as reduction in cell viability at 20 uM measured after 72 hrs in presence of 0.8 mM sodium valproate by Celltiter-Glo luminescent assay relative to control; format: functional
Homo sapiens [14] = organism: Homo sapiens; test: Downregulation of XRCC5 mRNA level in human M2025 cells by SYBR-green dye based qRT-PCR analysis; format: functional, cell-based
[15] = Chemosensitization activity in human M221 cells assessed as reduction in cell viability at 20 uM measured after 72 hrs in presence of 50 nM sodium valproate by Celltiter-Glo luminescent assay relative to control; format: functional
M34 [16] = test: Upregulation of PLOD2 mRNA level in human M34 cells by SYBR-green dye based qRT-PCR analysis; format: functional, cell-based
M34 [17] = test: Downregulation of NSUN5 mRNA level in human M34 cells by SYBR-green dye based qRT-PCR analysis; format: functional, cell-based
[18] = Cytotoxicity against human M133 cells assessed as reduction in cell viability measured after 72 hrs by Celltiter-Glo luminescent assay; format: functional, cell-based
[19] = Chemosensitization activity in human M221 cells assessed as reduction in cell viability at 20 uM measured after 72 hrs in presence of 200 nM sodium valproate by Celltiter-Glo luminescent assay relative to control; format: functional
[20] = Cytotoxicity against human M144 cells assessed as reduction in cell viability measured after 72 hrs by Celltiter-Glo luminescent assay; format: functional, cell-based
[21] = Cytotoxicity against human M189 cells assessed as reduction in cell viability measured after 72 hrs by Celltiter-Glo luminescent assay; format: functional, cell-based
[22] = Cytotoxicity against human M24 cells assessed as reduction in cell viability measured after 72 hrs by Celltiter-Glo luminescent assay; format: functional, cell-based; conditions: M24, 72 h
[23] = Synergistic cytotoxicity against human M193 cells assessed as combination index at 20 uM measured after 72 hrs in presence of 0.8 mM sodium valproate by Celltiter-Glo luminescent assay based Chou-Talalay method; format: functional
Homo sapiens [24] = organism: Homo sapiens; test: Downregulation of NSUN5 mRNA level in human M2025 cells by SYBR-green dye based qRT-PCR analysis; format: functional, cell-based
Homo sapiens [25] = organism: Homo sapiens; test: Upregulation of PLOD2 mRNA level in human M433 cells by SYBR-green dye based qRT-PCR analysis; format: functional, cell-based
[26] = Cytotoxicity against human M1 cells assessed as reduction in cell viability measured after 72 hrs by Celltiter-Glo luminescent assay; format: functional, cell-based
[27] = Synergistic cytotoxicity against human M193 cells assessed as combination index at 20 uM measured after 72 hrs in presence of 6 mM sodium valproate by Celltiter-Glo luminescent assay based Chou-Talalay method; format: functional
[28] = Cytotoxicity against human M7 cells assessed as reduction in cell viability measured after 72 hrs by Celltiter-Glo luminescent assay; format: functional, cell-based
[29] = Synergistic cytotoxicity against human M221 cells assessed as combination index at 20 uM measured after 72 hrs in presence of 0.2 mM sodium valproate by Celltiter-Glo luminescent assay based Chou-Talalay method; format: functional
[30] = Cytotoxicity against human M221 cells assessed as reduction in cell viability measured after 72 hrs by Celltiter-Glo luminescent assay; format: functional, cell-based
Homo sapiens [31] = organism: Homo sapiens; test: Upregulation of TMED7 mRNA level in human M193 cells by SYBR-green dye based qRT-PCR analysis; format: functional, cell-based
Homo sapiens [32] = organism: Homo sapiens; test: Upregulation of PLOD2 mRNA level in human M193 cells by SYBR-green dye based qRT-PCR analysis; format: functional, cell-based
[33] = Chemosensitization activity in human M193 cells assessed as reduction in cell viability at 20 uM measured after 72 hrs in presence of 4 mM sodium valproate by Celltiter-Glo luminescent assay relative to control; format: functional
Homo sapiens [34] = organism: Homo sapiens; test: Downregulation of XRCC5 mRNA level in human M433 cells by SYBR-green dye based qRT-PCR analysis; format: functional, cell-based
[35] = Synergistic cytotoxicity against human M221 cells assessed as combination index at 20 uM measured after 72 hrs in presence of 0.05 mM sodium valproate by Celltiter-Glo luminescent assay based Chou-Talalay method; format: functional
Homo sapiens [36] = organism: Homo sapiens; test: Upregulation of TMED7 mRNA level in human M433 cells by SYBR-green dye based qRT-PCR analysis; format: functional, cell-based
Homo sapiens [37] = organism: Homo sapiens; test: Upregulation of TMED7 mRNA level in human M2025 cells by SYBR-green dye based qRT-PCR analysis; format: functional, cell-based
M34 [38] = test: Upregulation of TMED7 mRNA level in human M34 cells by SYBR-green dye based qRT-PCR analysis; format: functional, cell-based
M34 [39] = test: Cytotoxicity against human M34 cells assessed as reduction in cell viability measured after 72 hrs by Celltiter-Glo luminescent assay; format: functional, cell-based; conditions: M34, 72 h
[40] = Synergistic cytotoxicity against human M193 cells assessed as combination index at 20 uM measured after 72 hrs in presence of 4 mM sodium valproate by Celltiter-Glo luminescent assay based Chou-Talalay method; format: functional
Homo sapiens [41] = organism: Homo sapiens; test: Downregulation of XRCC5 mRNA level in human M193 cells by SYBR-green dye based qRT-PCR analysis; format: functional, cell-based
[42] = Cytotoxicity against human SHM20A2 cells assessed as reduction in cell viability measured after 72 hrs by Celltiter-Glo luminescent assay; format: functional, cell-based
Homo sapiens [43] = organism: Homo sapiens; test: Downregulation of NSUN5 mRNA level in human M193 cells by SYBR-green dye based qRT-PCR analysis; format: functional, cell-based
[44] = Cytotoxicity against human M433 cells assessed as reduction in cell viability measured after 72 hrs by Celltiter-Glo luminescent assay; format: functional, cell-based
[45] = Chemosensitization activity in human M193 cells assessed as reduction in cell viability at 20 uM measured after 72 hrs in presence of 6 mM sodium valproate by Celltiter-Glo luminescent assay relative to control; format: functional
[46] = Cytotoxicity against human M221 cells assessed as reduction in cell viability at 20 uM measured after 72 hrs by Celltiter-Glo luminescent assay relative to control; format: functional
Homo sapiens [47] = organism: Homo sapiens; test: Upregulation of PLOD2 mRNA level in human M221 cells by SYBR-green dye based qRT-PCR analysis; format: functional, cell-based
Homo sapiens [48] = organism: Homo sapiens; test: Downregulation of NSUN5 mRNA level in human M221 cells by SYBR-green dye based qRT-PCR analysis; format: functional, cell-based
[49] = Synergistic cytotoxicity against human M221 cells assessed as combination index at 20 uM measured after 72 hrs in presence of 0.8 mM sodium valproate by Celltiter-Glo luminescent assay based Chou-Talalay method; format: functional
Homo sapiens [50] = organism: Homo sapiens; test: Cytotoxicity against human M193 cells assessed as reduction in cell viability at 0.8 to 6 mM measured after 72 hrs by Celltiter-Glo luminescent assay; format: functional, cell-based
Homo sapiens [51] = organism: Homo sapiens; test: Cytotoxicity against human M221 cells assessed as reduction in cell viability at 50 to 800 nM measured after 72 hrs by Celltiter-Glo luminescent assay; format: functional, cell-based

CSc1nc(Nc2cccc(Cl)c2)c2cnn(CCc3ccccc3)c2n1
55%: Activity [46]
0.696: CI [27]
92%: Activity [9]
0.09 to 9.01 µM: IC50 [2] | IC50 [5] | IC50 [7] | IC50 [10] | IC50 [12] | IC50 [18] | IC50 [20] | IC50 [21] | IC50 [22] | IC50 [26] | IC50 [28] | IC50 [30] | IC50 (M34 [39]) | IC50 [42] | IC50 [44]
0.835: CI [23]
89%: Activity [45]
84%: Activity [19] | Activity [33]
0.681: CI [29]
0.603: CI [49]
0.766: CI [35]
47%: Activity [4]
0.76: CI [40]
active: Activity (Homo sapiens [1]) | Activity (Homo sapiens [3]) | Activity (M34 [6]) | Activity (Homo sapiens [8]) | Activity (Homo sapiens [11]) | Activity (Homo sapiens [14]) | Activity (M34 [16]) | Activity (M34 [17]) | Activity (Homo sapiens [24]) | Activity (Homo sapiens [25]) | Activity (Homo sapiens [31]) | Activity (Homo sapiens [32]) | Activity (Homo sapiens [34]) | Activity (Homo sapiens [36]) | Activity (Homo sapiens [37]) | Activity (M34 [38]) | Activity (Homo sapiens [41]) | Activity (Homo sapiens [43]) | Activity (Homo sapiens [47]) | Activity (Homo sapiens [48])
75%: Activity [13] | Activity [15]

CCCC(CCC)C(=O)O
inactive: Activity (Homo sapiens [50]) | Activity (Homo sapiens [51])
